This note sets out measurements from patent US20050220800A1, “Cytokines and cytokine receptors with reduced immunogenicity” (priority 2002, published 2005).

Test [1] deals with human CD4+ T-cells. Nature of the test: I-MUNE assay of soluble human TNF-R1 peptides. It counts as cell-based. The note with it: FIG. 10. Here is the method:
Peptides for use in the I-MUNE® assay as described in Example 3 were prepared based on the sequence of the soluble human tumor necrosis factor receptor 1 (TNF-R1) (GenBank Accession No. P19438) with the sequence:
The background was determined to be 2.23 and the value for three standard deviations was 8.07. This epitope has the sequence CSLCLNGTVHLSCQE (SEQ ID NO:107). […] This variant was then reported to have a reduced immunogenic capacity when tested in a non-human primate (See, Rosenberg et al., J. Appl. Physiol., 91:2213-2223 [2001]). Thus, it is contemplated that modifications in this epitope will provide advantages in the development of sTNFR-1 for use in treatment.

Test [2] has as its system human CD4+ T-cells. As to the kind of experiment: I-MUNE assay of human erythropoietin peptides. It counts as cell-based. The settings on record: 59 donors; FIG. 11. Here is the method:
Peptides for use in the I-MUNE® assay as described in Example 3 were prepared based on the sequence of human erythropoietin (EPO), (GenBank Accession No. P1588), with the sequence:
The I-MUNE® assay described in Example 3, was conducted using cells obtained from 59 donors. FIG. 11 provides a graph showing the data obtained in the I-MUNE® assay with the pepset produced from the EPO sequence above (SEQ ID NO:108). […] Peptide #34 has the sequence SGLRSLTTLLRALGA (SEQ ID NO:109), and peptide #48 has the sequence FRVYSNFLRGKLKLY (SEQ ID NO:110). As active mutants have been made in the region represented by peptides #34 and #48 (See, Elliott et al., 89:493-502 [1997]), it is contemplated that amino acid modifications in or around these peptides will provide variant EPO suitable for use as an EPO substitute.

For test [3], the system named is human CD4+ T-cells. Nature of the test: I-MUNE assay of IFN-β 15mer peptides (T-cell proliferation). It counts as cell-based. The settings on record: percent of donors with proliferative response at least 2.95 times baseline; 87 donors; 5 μM peptide. Here is the method:
Fresh human peripheral blood cells were collected from 87 humans of unknown exposure status to IFN-β. These cells were tested to determine antigenic epitopes in IFN-β, as described in Example 3.
Peripheral mononuclear blood cells (stored at room temperature, no older than 24 hours) were prepared for use as follows: Approximately 30 mls of a solution of buffy coat preparation from one unit of whole blood was brought to 50 ml with Dulbecco's phosphate buffered solution (DPBS) and split into two tubes. The samples were underlaid with 12.5 ml of room temperature Lymphoprep density separation media (Nycomed; Pharma AS; Density 1.077 g/ml). The tubes were centrifuged for thirty minutes at 600×g. The interface of the two phases was collected, pooled and washed in DPBS. The cell density of the resultant solution was measured by hemocytometer, as known in the art. Viability was measured by trypan blue exclusion, as known in the art. […]
CD4+ T cells were prepared from frozen aliquots of the peripheral blood cell samples used to prepare the dendritic cells, using reagents provided by the Dynal CD4+ T-cell enrichment kit (Dynal). The resultant CD4+ cell solution was centrifuged, resuspended in AIMV media and the cell density was determined using methods known in the art. […]

Test [4] concerns human CD4+ T-cells. As to the kind of experiment: I-MUNE assay of IFN-β variant peptides. The class given is cell-based. The settings on record: for status on additional testing: FIG. 5. On the procedure:
A set of variant peptides was ordered based on the sequences of peptides #1 (SEQ ID NO:2), #27 (SEQ ID NO:28), and #40 (SEQ ID NO:41). An alanine scan was performed for each peptide. In addition, variant peptides were ordered that corresponded to the peptide sequences as described by Runkel et al., (Runkel et al., Biochem., 39:2538-2551 [2000]). These variant peptides were synthesized by Mimotopes (San Diego, Calif.) using the multi-pin synthesis technique known in the art (See e.g., Maeji et al., J. Immunol. Meth., 134:23-33 [1990]).
The I-IMUNE® assay was performed as described in Example 3, utilizing the variant peptides on a set of 103 donor samples. […] Epitope #40 returned a consistent donor response percent of 15%.

In test [5] the test system is human CD4+ T-cells. Nature of the test: I-MUNE assay of human thrombopoietin peptides. The class given is cell-based. Here is the method: Peptides for use in the I-MUNE® assay as described in Example 3 were prepared based on the sequence of the first 152 residues of human thrombopoietin (i.e., the active domain of TPO), as well as the entire TPO sequence, including the CHO binding domain (GenBank Accession No. P40225) with the sequence:
The I-MUNE® assay described in Example 3, was conducted using cells obtained from 99 donors. The background was determined to be 2.5, and the standard deviation was 9.2. FIG. 7 provides a graph showing the data obtained in the I-MUNE® assay with the first 152 residues of TPO (i.e., the active domain).
FIG. 8 provides a graph showing the results for the I-MUNE® assay conducted using the entire TPO molecule, including the CHO binding domain.
FIG. 9, Panels A and B provide graphs showing the results for TPO epitope #45, in which the critical residues were tested. The average parental residue response was 9.18±1.82. Values less that 3.5% were equivalent to 3 standard deviations under the averaged response of the parent peptides.

Test [6] has as its system HLA-DR and -DQ antigens. Nature of the test: HLA association with response to epitope peptide #40. Set-up: species or system human. The settings on record: for percent non-responsive / percent responsive / relative risk: 186 donors. On the procedure:
The HLA-DR and DQ expression of all the donors tested in both rounds of assay testing described above were assessed using a commercially available PCR-based HLA typing kit (Bio-Synthesis). The phenotypic frequencies of individual HLA-DR and -DQ antigens among responders and non-responders to peptide #40 were tested using a chi-squared analysis with 1 degree of freedom. The increased or decreased likelihood of reacting to epitope #40, the relative risk, was calculated wherever the HLA antigen in question was present in both responding and non-responding donor samples.
A total of 186 donors were completely HLA typed, and were included in the analysis for epitope peptide #40.
The magnitude of the proliferative response to peptide #40 in responders and non-responders expressing HLA-DQ6 was also analyzed. […] As a control, non-responders to the peptide returned the same level of proliferation the peptide regardless of their expression of HLA-DQ6.

As for “CSLCLNGTVHLSCQE (listed as Homo sapiens) [SEQ ID NO:107]”, the epitope identification entry in test [1] is given as “significant epitope”.
Consider “SGLRSLTTLLRALGA (listed as Homo sapiens) [peptide #34]”, for which, in test [2], the epitope identification result is recorded as “Epitopes of interest”.
The same measure, in the same setting: the result for “FRVYSNFLRGKLKLY (listed as Homo sapiens) [peptide #48]” reads “Epitopes of interest”.
As to “peptide #1: 15mer peptide of human IFN-β pepset, SEQ ID NO:2 (MSYNLLGFLQRSSNF)”, in test [3], the percent response is no less than 9.51%. In addition, the “status on additional testing” value in test [4] is “non-statistically relevant”.
For “RAPPTTAVPSRTSLVLTL (listed as Homo sapiens) [peptide #45]”, the response in test [5] (TPO epitope #45 critical residue testing, FIG. 9) is reported as 9.18±1.82%. In test [5] (entire TPO molecule, 99 donors, FIG. 8), the epitope identification result is given as “epitope of interest”.
Consider “peptide #40: 15mer peptide of human IFN-β pepset, SEQ ID NO:41; identified CD4+ T-cell epitope (SSLHLKRYYGRILHY)”, for which the “magnitude of the proliferative response in responders expressing HLA-DQ6 versus responders not expressing HLA-DQ6” value in test [6] (FIG. 6, responder = stimulation index greater than 2.95) is on record as “significantly higher”. Besides, the figures for the percent non-responsive in test [6] (HLA-DQ6), in test [6] (HLA-DR1) and in test [6] (HLA-DR15) were 25%, 3% and 15%, respectively. Further, the percent responsive in test [6] (HLA-DQ6) is 61%; in test [6] (HLA-DR1), 17%; in test [6] (HLA-DR15), 39%. The relative risk in test [6] (HLA-DQ6) was 3.58; in test [6] (HLA-DR1), 0.19; in test [6] (HLA-DR15), 2.68. Moreover, the percent response in test [3] worked out at 18.18%. Besides, the donor response percent in test [4] (103 donor samples) was found to be 15%.
For the substance “peptide #27: 15mer peptide of human IFN-β pepset, SEQ ID NO:28 (WNETIVENLLANVYR)”, in test [4], the “status on additional testing” value was “non-statistically relevant”.
